Values of other authors in US20100029676A1 (priority 2005, published 2010).

Tested on: imatinib-resistant BCR-ABL mutants
Conditions: number of mutants active / tested; Weisberg et al.

In the case of `Cc1cn(-c2cc(NC(=O)c3ccc(C)c(Nc4nccc(-c5cccnc5)n4)c3)cc(C(F)(F)F)c2)cn1` [AMN107], the “imatinib-resistant BCR-ABL mutants against which significantly active” value is listed as 32/33.
